Data reported in patent US11096929B2 (Ovid Therapeutics Inc., priority 2015, dated 2021).
Entries after “also recorded” stand apart in the source; their conditions may differ.

Assays:
[1] = tested on: healthy, male and female subjects; experiment: Driving performance (real driving on the road) after evening and middle of the night dosing; format: in vivo, human; details: for effect on driving / effect on memory test, body sway, DSST or critical tracking: gaboxadol 15 mg; for effect on driving: driving test at 9 am; for effect on memory test, body sway, DSST or critical tracking: cognitive and psychomotor test battery; for tolerability / most frequent adverse events: 15 mg
Source text: The study participants included healthy, male and female subjects between 21 and 45 years of age, with a valid drivers license for at least 3 years.
Following a cognitive and psychomotor test battery, the driving test started at 9 am and lasted for one hour.

insomnia = details: three-month efficacy study; cited from earlier work
[2] = tested on: patients with a history of drug abuse; details: cited from earlier work
[3] = tested on: healthy elderly male and female subjects; details: in vivo
[4] = tested on: subjects with Angelman syndrome; experiment: Adverse events in 12-week placebo-controlled Angelman syndrome trial; format: in vivo, human
[5] = tested on: Purkinje cells in cerebellar brain slices; details: low doses; cited from earlier work
[6] = tested on: healthy adults subjected to a 5-hour sleep restriction; experiment: Daytime performance after sleep restriction (MSLT, SWS, KSS, neurobehavioral battery); format: in vivo, human
Procedure: The study included a 2-night single-blind placebo run-in period, a 4-night double-blind treatment period during which sleep was restricted to 5 hours and a 2-night single-blind placebo run-out period. The study included healthy male and female volunteers 18 to <55 years of age.
2-night run-in period: All patients received placebo ?
2-night run-out period: All patients received placebo
The primary endpoints included observations based on the Multiple Sleep Latency Test (MSLT) and Slow Wave Sleep (SWS) assessment.

[7] = Plasma concentration profiles, dose proportionality and absolute bioavailability of gaboxadol after single oral doses and 10 mg IV; details: geometric mean, N = 10
[8] = tested on: subjects with Angelman syndrome; experiment: Clinical Global Impressions (CGI-S, CGI-I) in 12-week placebo-controlled Angelman syndrome trial; format: in vivo, human; details: for percentage very much improved on CGI-I: QD group; for responders (one point or greater improvement in the CGI-I scale): once daily dose
Source text: CGI-S scale assessed all sub-domains of Angelman syndrome (gross and fine motor ability, sleep, and adaptive behavior) plus globally by the investigator. […] The Clinical Global Impressions-Improvement (CGI-I) scale was used to assess all sub-domains of Angelman syndrome (gross and fine motor ability, sleep, and adaptive behavior) plus globally by the investigator and caregiver. CGI-I is a 7-point scale in which the investigator rates the improvement or worsening of symptoms compared to baseline.

Ube3a-deficient mice = details: low doses; Ube3a-deficient mice in vivo; cited from earlier work
[9] = tested on: subjects with Angelman syndrome; experiment: Sleep diary in 12-week placebo-controlled Angelman syndrome trial; format: in vivo, human; details: for 6-week LS Mean sleep time (total sleep time at night) / 12-week LS Mean sleep time (total sleep time at night): sleep diary
Procedure: This multicenter, randomized, parallel (3-arm), double-blind, placebo-controlled trial enrolled 88 patients including adults (n=66) and adolescents (n=22) aged 13 to 49 years of age, diagnosed with Angelman syndrome. […] The dosing schedules that were assessed against placebo were once daily (QD): An evening dose titrated to the target dose of 15 mg unless not tolerated; and twice daily (BID): Evening and morning doses titrated to the target doses of 15 mg evening dose and 10 mg morning dose unless not tolerated.
The observed and change from baseline in total hours of sleep time at night (assessed from subject Sleep Diary) is provided in Table III.

[10] = middle-of-the-night (4 am) administration, zolpidem 10 mg
[11] = BID dosing (10 mg morning, 15 mg evening), N = 29

## Cc1ccc(-c2nc3ccc(C)cn3c2CC(=O)N(C)C)cc1 [zolpidem]
[1]; [10]
  effect on driving: numerically greater effect

## CN1CCN(C(=O)OC2c3nccnc3C(=O)N2c2ccc(Cl)cn2)CC1 (stereo not drawn) [zopiclone]
[1]; zopiclone 7.5 mg
  effect on memory test, body sway, DSST or critical tracking: had effect on several of these tests
[1]; evening dose, zopiclone 7.5 mg
  effect on driving: numerically greater effect

## Oc1noc2c1CCNC2 [gaboxadol, 4,5,6,7-tetrahydroisoxazolo [5,4-c]pyridine-3-ol]
insomnia
  effects in sleep onset and sleep maintenance: failed to show significant effects
[2]
  psychiatric adverse events: steep increase in psychiatric adverse events
[1]; zopiclone 7.5 mg
  effect on memory test, body sway, DSST or critical tracking: no effect
[1]; evening dose
  tolerability: well tolerated
[1]; evening treatment
  most frequent adverse events: headache and somnolence
[1]; gaboxadol 15 mg evening dose vs 0.05% blood alcohol concentration
  effect on driving compared with alcohol: less than the effect observed at a 0.05% blood alcohol concentration
[1]; [10]
  effect on driving: clinically relevant impairing effect
[1]; middle-of-the-night dose
  tolerability: well tolerated
[1]; middle-of-the-night treatment
  most frequent adverse events: dizziness, nausea and somnolence
[3]
  residual effect on primary endpoints Choice Reaction Time and Critical Flicker Fusion: did not show residual effect
  residual effects on other measurements (MSLT, DSST, Tracking, Memory tests, Body Sway, Leeds Sleep Evaluation Questionnaire): did not show any signs of residual effects
[4]; BID dosing, N = 29
  subjects with Abdominal Pain upper, number (%): 0
  subjects with At least 1 Adverse Event, number (%): 19 (66%)
  subjects with Diarrhea, number (%): 1 (3.4%)
  subjects with Gastrointestinal disorders, number (%): 4 (13.8%)
  subjects with Nausea, number (%): 2 (6.9%)
  subjects with Retching, number (%): 1 (3.4%)
  subjects with Vomiting, number (%): 1 (3.4%)
[4]; Combined, N = 58
  subjects with Abdominal Pain upper, number (%): 0
  subjects with At least 1 Adverse Event, number (%): 37 (64%)
  subjects with Diarrhea, number (%): 1 (1.7%)
  subjects with Gastrointestinal disorders, number (%): 4 (6.9%)
  subjects with Nausea, number (%): 2 (3.4%)
  subjects with Retching, number (%): 1 (1.7%)
  subjects with Vomiting, number (%): 1 (1.7%)
[4]; QD dosing, N = 29
  subjects with Abdominal Pain upper, number (%): 0
  subjects with At least 1 Adverse Event, number (%): 18 (62%)
  subjects with Diarrhea, number (%): 0
  subjects with Nausea, number (%): 0
  subjects with Retching, number (%): 0
  subjects with Vomiting, number (%): 0
[4]; QD dosing, N = 29, placebo 6 of 29
  subjects with Gastrointestinal disorders, number (%): 0
[5]
  abnormal firing properties of a population of Purkinje cells: improve the abnormal firing properties
[6]; 15 mg vs placebo
  biophysiological measures of stress (heart rate variability, cortisol levels, catecholamine levels, body temperature) vs placebo: no differences
  daytime performance, effect sizes for the neurocognitive battery: no strong evidence that gaboxadol improves daytime performance
[6]; 15 mg, Sleep Restriction period
  subjective daytime sleepiness vs placebo: trend towards less subjective daytime sleepiness
[6]; 15 mg, Sleep Restriction period, p<0.001, 1 sided
  amount of slow wave sleep (SWS) vs placebo: increases the amount of slow wave sleep; also recorded: significantly more SWS
[6]; 15 mg, Sleep Restriction period, p=0.047, 1 sided
  daytime sleepiness (sleep propensity by MSLT) vs placebo: protective effect on reducing daytime sleepiness; also recorded: significantly less daytime sleepiness
[6]; 15 mg, last two Sleep Restriction days
  MSLT longer than placebo, average: 2.01 min
[6]; 15 mg, last two Sleep Restriction days, p=0.058, 1 sided, LDA model
  Karolinska Sleepiness Score (KSS) less than placebo, average: 0.68
[6]; 15 mg, last two Sleep Restriction nights
  SWS longer than placebo, average: 20.53 min
[7]; 2.5 mg single oral dose
  Fe: 43%
[7]; 5 mg single oral dose
  Fe: 45%
[7]; 10 mg I.V.
  Fe: 53%
[7]; 10 mg Oral
  Fe: 53%
[7]; 15 mg single oral dose
  Fe: 50%
[7]; 20 mg single oral dose
  Fe: 53%
[8]; [11]
  CGI-I 6-week LS Mean: 3.54 (0.16)
  CGI-I 12-week LS Mean: 3.58 (0.16)
[8]; BID dosing minus placebo
  CGI-I 6-week LS Mean difference: −0.06 (0.21)
  CGI-I 12-week LS Mean difference: −0.21 (0.22)
[8]; Combined QD and BID, N = 58
  CGI-I 6-week LS Mean: 3.45 (0.12)
  CGI-I 12-week LS Mean: 3.29 (0.12)
[8]; Combined minus placebo
  CGI-I 6-week LS Mean difference: −0.15 (0.18)
  CGI-I 12-week LS Mean difference: −0.49 (0.19)
[8]; QD dosing (15 mg evening), N = 29, 7-point scale, clinician assessed
  CGI-I 6-week LS Mean: 3.54 (0.16)
[8]; QD dosing minus placebo
  CGI-I 6-week LS Mean difference: −0.24 (0.21)
  CGI-I 12-week LS Mean difference: −0.78 (0.22)
[8]; 18-24 year old, placebo 9%
  percentage very much improved on CGI-I: 27%
[8]; oldest cohort (25-49), placebo 11%
  percentage very much improved on CGI-I: 20%
[8]; youngest cohort (13-17), placebo 0%
  percentage very much improved on CGI-I: 33%
[8]; QD, placebo 3.1 to 3.0
  CGI-S Hyperactivity, change: 3.5 to 2.9
[8]; QD, placebo 3.3 to 3.6
  CGI-S Stereotypic behavior, change: 3.7 to 3.1
[8]; once daily dose cohort, all ages, placebo 26%
  responders (one point or greater improvement in the CGI-I scale) in overall symptoms: 70%
[8]; 13-17 year old, placebo 29%
  responders (one point or greater improvement in the CGI-I scale): 83%
[8]; 18-24 year old, placebo 27%
  responders (one point or greater improvement in the CGI-I scale): 73%
[8]; 25-49 year old, placebo 22%
  responders (one point or greater improvement in the CGI-I scale): 60%
Ube3a-deficient mice
  cerebellar ataxia: reduces cerebellar ataxia
[9]; BID dosing
  6-week LS Mean difference, sleep time: 0.30 (1.1) hours
  12-week LS Mean difference, sleep time: 0.18 (0.97) hours
[9]; BID dosing, N = 29
  6-week LS Mean sleep time (total sleep time at night): 8.95 (1.1) hours
  12-week LS Mean sleep time (total sleep time at night): 8.84 (1.1) hours
[9]; Combined
  6-week LS Mean difference, sleep time: 0.22 (0.94) hours
  12-week LS Mean difference, sleep time: 0.07 (1.0) hours
[9]; Combined, N = 58
  6-week LS Mean sleep time (total sleep time at night): 8.93 (1.3) hours
  12-week LS Mean sleep time (total sleep time at night): 8.80 (1.1) hours
[9]; QD dosing
  6-week LS Mean difference, sleep time: 0.14 (0.81) hours
  12-week LS Mean difference, sleep time: −0.04 (1.1) hours
[9]; QD dosing, N = 29
  6-week LS Mean sleep time (total sleep time at night): 8.91 (1.5) hours
  12-week LS Mean sleep time (total sleep time at night): 8.76 (1.2) hours

## CCN(CC)CCN1C(=O)CN=C(c2ccccc2F)c2cc(Cl)ccc21 [Flurazepam]
[3]
  residual effect on primary endpoints Choice Reaction Time and Critical Flicker Fusion: showed significant effect
